In patent US9504697B2, “Progesterone treatment for improving sleep quality” (BESINS Healthcare Luxembourg SARL, priority 2011, dated 2016):

What was measured:
postmenopausal women [1] = assay: Polygraphic sleep recordings in randomized, double-blind, placebo-controlled study, prevention of sleep disturbances; assay type: in vivo, human
Description: Eight postmenopausal women, aged 48-74 yr (mean 57.4 yr), were selected after a careful clinical and biological evaluation. Investigations were performed 2-17 years (mean: 8.0 years) after natural menopause (seven subjects) or bilateral ovariectomy (one subject). Mean age at menopause was 49.4 years (range: 41-57 yr). Three subjects had never received hormone replacement therapy, and five subjects had been off such treatment for 2-6 months (mean: 4.4 months) at the time of enrollment. Body weight was in the normal range for all (mean+/-SEM of body mass index 22.1+/-0.8 kg/m2). In all subjects, estradiol plasma levels were <10 ng/liter. FSH plasma levels averaged 90 IU/liter (range: 66-136 IU/liter). The protocol was designed as a randomized, double-blind, placebo-controlled study. Thereafter, all subjects participated in random order in two studies (referred to as placebo and progesterone), separated from each other by at least 1 month. The placebo study preceded the progesterone study in four subjects and followed the progesterone study in the other four volunteers. Each study included an initial 20 day ambulatory period. During this period, the subjects were asked to maintain regular sleep-wake cycles (bedtime 2300-0700 h in darkness) and meal schedules (0800 h, 1230 h, 1900 h). They took daily, at 2300 h, a capsule of either 300 mg of progesterone or placebo. At the end of the ambulatory period, they were admitted at about 1600 h to the sleep laboratory for 44 hours. During hospitalization, subjects were maintained in a seated/upright position in normal indoor light conditions (+/-300 lux), and no naps were allowed during the scheduled wake periods (0700-2300 h). Meals were served at 0800 h, 1230 h, and 1900 h. At 2300 h, they received their usual capsule of either 300 mg of progesterone or placebo. During both scheduled sleep periods (2300-0700 h), subjects were kept recumbent in total darkness and sleep was polygraphically recorded. On the morning after the first night, a sterile heparin-lock catheter was inserted intravenously in the forearm and blood samples were collected for 24 hours at 15-minute intervals. The iv line was kept permeable by a slow drip of heparinized saline. During the sleep period, the indwelling catheter was connected to plastic tubing extending to an adjacent room and blood samples were collected remotely, as previously described (Leproult et al., 2005, Clin. Endocrinol. 63: 298-304). The total amount of blood withdrawn was less than 300 ml for each inpatient study. The subjects were discharged at about 1200 h after the second night. Polygraphic sleep recordings were visually scored at 30 second intervals, using standardized criteria ([…] and Kales, 1968, Los Angeles: UCLA Brain Information Service/Brain Research Institute) by the same experienced scorer who was blind to the clinical condition of the subject. Sleep onset and morning awakening were defined as, respectively, the times of the first and last 30 second intervals scored II, III, IV, or rapid eye movement (REM). The sleep period was defined as the time interval separating sleep onset and final awakening. Total sleep time was defined as the sleep period minus the total duration of wake after sleep onset (WASO). Sleep latency was defined as the time interval from lights off until sleep onset. Sleep efficiency was calculated as the total sleep time, expressed as percentage of the time allocated to sleep. Slow-wave sleep (SWS) was defined as stages III+IV. A spectral analysis was performed on the central electroencephalogram lead (PRANA, PhiTools, Strasbourg, France) (Latta et al., 2005, Sleep 28: 1525-1534). Muscular, ocular, and movement artifacts were eliminated before spectral analysis. Delta activity was calculated as the absolute spectral power in the frequency band 0.5-4 Hz. Mean delta power was calculated per 30-sec epoch. Delta power in non-REM sleep quantifies slow-wave activity (SWA) (i.e., the intensity of SWS). […]

postmenopausal women [2] = assay: Hormone levels (GH, IGF-I, TSH, free T4) from 24 hour blood sampling in the placebo-controlled study; assay type: in vivo, human
Description: Each study included an initial 20 day ambulatory period. During this period, the subjects were asked to maintain regular sleep-wake cycles (bedtime 2300-0700 h in darkness) and meal schedules (0800 h, 1230 h, 1900 h). They took daily, at 2300 h, a capsule of either 300 mg of progesterone or placebo.
At the end of the ambulatory period, they were admitted at about 1600 h to the sleep laboratory for 44 hours. During hospitalization, subjects were maintained in a seated/upright position in normal indoor light conditions (+/−300 lux), and no naps were allowed during the scheduled wake periods (0700-2300 h). Meals were served at 0800 h, 1230 h, and 1900 h. At 2300 h, they received their usual capsule of either 300 mg of progesterone or placebo. During both scheduled sleep periods (2300-0700 h), subjects were kept recumbent in total darkness and sleep was polygraphically recorded.
On the morning after the first night, a sterile heparin-lock catheter was inserted intravenously in the forearm and blood samples were collected for 24 hours at 15-minute intervals. The iv line was kept permeable by a slow drip of heparinized saline. During the sleep period, the indwelling catheter was connected to plastic tubing extending to an adjacent room and blood samples were collected remotely, as previously described (Leproult et al., 2005, Clin. Endocrinol. 63: 298-304). The total amount of blood withdrawn was less than 300 ml for each inpatient study. The subjects were discharged at about 1200 h after the second night.
Nonparametric tests (Friedman test, Wilcoxon signed rank test, Spearman rank test) were used for statistical calculations (StatView SE+ software for Macintosh computers, Abacus Concepts Inc., Berkeley, Calif.). Detection of outliers was performed by the Grubbs test (Grubbs, 1969, Technometrics 11:1-21; Grubbs and Beck, 1972, Technometrics 14:847-854). All group values are expressed as the mean+/−SEM.
Levels of growth hormone (GH) and thyroid-stimulating hormone (TSH) also were assessed.

men = men orally administered 300 mg progesterone; cited from earlier work
post-menopausal women = post-menopausal women administered 300 mg progesterone; cited from earlier work
[3] = night 2 (with catheter), P=0.04

CC(=O)[C@H]1CC[C@H]2[C@@H]3CCC4=CC(=O)CC[C@]4(C)[C@H]3CC[C@]12C [progesterone, pregn-4-ene-3,20-dione]
sleep duration and architecture, placebo versus progesterone treatment (postmenopausal women [1]; night 1 (without catheter), 300 mg daily at 2300 h, after 20 day ambulatory period): no differences
sleep latency, stage I, stage II, REM sleep, and REM latency, progesterone versus placebo (postmenopausal women [1]; night 2 (with catheter)): no differences
sleep efficiency higher under progesterone compared with placebo (postmenopausal women [1]; [3]): 15%
total SWA higher under progesterone compared with placebo (postmenopausal women [1]; [3]): more than 40%
total sleep time higher under progesterone compared with placebo (postmenopausal women [1]; [3]): 20%
mean WASO duration lower under progesterone compared with placebo (postmenopausal women [1]; night 2 (with catheter), P=0.05): more than 50%
SWS duration (postmenopausal women [1]; night 2 (with catheter), all eight subjects, mean+/-SEM): 84 ± 10 min
SWS duration, outlier excluded (postmenopausal women [1]; night 2 (with catheter), outlier excluded from the analysis, mean+/-SEM, P=0.04 vs placebo): 79 ± 10 min
other sleep variables, night 2 compared with night 1 (postmenopausal women [1]; under progesterone 300 mg daily, night 2 with iv catheter): not significantly altered
decrease in stage II, night 2 compared with night 1 (postmenopausal women [1]; under progesterone 300 mg daily, night 2 with iv catheter, P=0.04): about 20%
decrease in total sleep time, night 2 compared with night 1 (postmenopausal women [1]; under progesterone 300 mg daily, night 2 with iv catheter, P=0.05): about 20%
decrease in sleep efficiency, night 2 compared with night 1 (postmenopausal women [1]; under progesterone 300 mg daily, night 2 with iv catheter, P=0.07): about 20%
GH secretion over the scheduled wake period (postmenopausal women [2]; 0700-2300 h, mean+/-SEM, similar under both conditions): 239 ± 91 µg
slope of the linear regression of TSH values over the 2300-0100 period (postmenopausal women [2]; 2300-0100 period, P=0.05): significant negative slope
TSH levels over the 2300-0700 period (postmenopausal women [2]; 2300-0700 period, P=0.05 vs placebo): 0.98+/−0.18 mU/l
GH secretion over the scheduled sleep period (postmenopausal women [2]; 2300-0700 h, mean+/-SEM, P=0.05 vs placebo): 154 ± 44 µg
24 hour TSH levels (postmenopausal women [2]; 24 hour, P=0.07 vs placebo): 0.91+/−0.13 mU/l
24 hour free T4 levels (postmenopausal women [2]; 24 hour, P=0.53 vs placebo): 10.3 ± 0.4 ng/L
IGF-I levels (postmenopausal women [2]; measured on 2-3 morning plasma samples, P=0.09 vs placebo): 103 ± 23 µg/L
effect on sleep pattern (men): increase of stage N2 time and decrease of stage N3 time and of REM sleep
intermittent time spent awake and REM sleep in the first third of the night (post-menopausal women): decrease of intermittent time spent awake and increase in REM sleep in the first third of the night
total duration of REM, Stage 2 or SWS, absolute power spectra; baseline, placebo and progesterone (post-menopausal women): no significant differences
